# Source: ChEMBL document CHEMBL4665770, “Design and Discovery of Natural Cyclopeptide Skeleton Based Programmed Death Ligand 1 Inhibitor as Immune Modulator for Cancer Therapy” (J Med Chem, 2020)
# Square brackets hold non-standard residues; d marks the D form. Peptide text beside a SMILES is read from it.
# Target: Programmed cell death protein 1/Programmed cell death 1 ligand 1 (Homo sapiens) (UniProt Q15116+Q9NZQ7)
# Test: Inhibition of PD1-Tag2/PD-L1-Tag1 (unknown origin) protein-protein interaction at 20 uM preincubated for 15 mins followed by addition of anti-Tag1-Eu3+ and anti-Tag2-XL665 measured after 3 hrs by HTRF assay relative to control
# Format: protein-complex assay
# Details: time 195.0 min
row,SMILES,inhibition [%]
1,CC(C)C[C@@H]1NC(=O)[C@H](CCCNC(=N)N)NC(=O)[C@H](C(C)C)NC(=O)[C@@H]2CCCN2C(=O)[C@H](CC(=O)O)NC(=O)[C@@H](Cc2ccccc2)NC(=O)[C@H](CC(C)C)NC(=O)[C@H]([C@@H](C)O)NC(=O)[C@@H]2CCCN2C(=O)[C@@H](Cc2ccccc2)NC1=O (cyclo(DPVRL[dF]PTL[dF])),-0.905
2,CC(C)C[C@@H]1NC(=O)[C@H](CCCNC(=N)N)NC(=O)[C@H](C(C)C)NC(=O)[C@H](CC(C)C)NC(=O)[C@@H](Cc2ccccc2)NC(=O)[C@H](C)NC(=O)[C@H](CCCNC(=N)N)NC(=O)[C@H](C(C)C)NC(=O)[C@@H]2CCCN2C(=O)[C@@H](Cc2ccccc2)NC1=O (cyclo(A[dF]LVRL[dF]PVR)),11.2
3,CC(C)C[C@@H]1NC(=O)[C@H](CO)NC(=O)[C@H]([C@@H](C)O)NC(=O)[C@@H]2CCCN2C(=O)[C@@H](Cc2ccccc2)NC(=O)[C@H](CC(C)C)NC(=O)[C@H](CCCNC(=N)N)NC(=O)[C@H](C(C)C)NC(=O)[C@@H]2CCCN2C(=O)[C@@H](Cc2ccccc2)NC1=O (cyclo(L[dF]PTSL[dF]PVR)),29.7
4,CC(C)C[C@@H]1NC(=O)[C@H](CCCNC(=N)N)NC(=O)[C@H](C(C)C)NC(=O)[C@@H]2CCCN2C(=O)[C@@H](Cc2ccccc2)NC(=O)[C@H](C)NC(=O)[C@H](CCC(=O)O)NC(=O)[C@H](C)NC(=O)[C@@H]2CCCN2C(=O)[C@@H](Cc2ccccc2)NC1=O,-6.08
5,CC(C)C[C@@H]1NC(=O)[C@H](CC(=O)O)NC(=O)[C@H]([C@@H](C)O)NC(=O)[C@@H]2CCCN2C(=O)[C@@H](Cc2ccccc2)NC(=O)[C@H](CC(C)C)NC(=O)[C@H](CCC(N)=O)NC(=O)[C@H](C(C)C)NC(=O)[C@@H]2CCCN2C(=O)[C@@H](Cc2ccccc2)NC1=O (cyclo(DL[dF]PVQL[dF]PT)),47.5
6,CC(C)C[C@@H]1NC(=O)[C@H](CC(=O)O)NC(=O)[C@H]([C@@H](C)O)NC(=O)[C@@H]2CCCN2C(=O)[C@@H](Cc2ccccc2)NC(=O)[C@H](CC(C)C)NC(=O)[C@H](CCCNC(=N)N)NC(=O)[C@H](C(C)C)NC(=O)[C@@H]2CCCN2C(=O)[C@@H](Cc2ccc(O)cc2)NC1=O (cyclo(DL[dY]PVRL[dF]PT)),18.7
7,CC(C)C[C@@H]1NC(=O)[C@H](CC(=O)O)NC(=O)[C@H]([C@@H](C)O)NC(=O)[C@@H]2CCCN2C(=O)[C@@H](Cc2c[nH]c3ccccc23)NC(=O)[C@H](CC(C)C)NC(=O)[C@H](CCCNC(=N)N)NC(=O)[C@H](C(C)C)NC(=O)[C@@H]2CCCN2C(=O)[C@@H](Cc2ccccc2)NC1=O (cyclo(DL[dF]PVRL[dW]PT)),43.4
8,CC(C)C[C@@H]1NC(=O)[C@H](CCCNC(=N)N)NC(=O)[C@H](C(C)C)NC(=O)[C@@H]2CCCN2C(=O)[C@@H](Cc2ccccc2)NC(=O)[C@H](CC(=O)O)NC(=O)[C@H](CC(C)C)NC(=O)[C@H]([C@@H](C)O)NC(=O)[C@@H]2CCCN2C(=O)[C@@H](Cc2ccccc2)NC1=O (cyclo(D[dF]PVRL[dF]PTL)),-5.92
9,CC(C)C[C@@H]1NC(=O)[C@H](CCCNC(=N)N)NC(=O)[C@H](C(C)C)NC(=O)[C@@H]2CCCN2C(=O)[C@@H](Cc2ccccc2)NC(=O)[C@H](Cc2cnc[nH]2)NC(=O)[C@H](CC(=O)O)NC(=O)[C@H]([C@@H](C)O)NC(=O)[C@@H]2CCCN2C(=O)[C@@H](Cc2ccccc2)NC1=O (cyclo(DH[dF]PVRL[dF]PT)),-8.61
10,CC(C)C[C@@H]1NC(=O)[C@H](CCCNC(=N)N)NC(=O)[C@H](C(C)C)NC(=O)[C@@H]2CCCN2C(=O)[C@@H](Cc2ccccc2)NC(=O)[C@H](CC(C)C)NC(=O)[C@H]([C@@H](C)O)NC(=O)[C@@H]2CCCN2C(=O)[C@H](CC(=O)O)NC(=O)[C@@H](Cc2ccccc2)NC1=O (cyclo(DPTL[dF]PVRL[dF])),12.9
11,CC(C)C[C@@H]1NC(=O)[C@H](CCCNC(=N)N)NC(=O)[C@H](C(C)C)NC(=O)[C@@H]2CCCN2C(=O)[C@@H](Cc2ccccc2)NC(=O)[C@H](C)NC(=O)[C@H](CC(=O)O)NC(=O)[C@H]([C@@H](C)O)NC(=O)[C@@H]2CCCN2C(=O)[C@@H](Cc2ccccc2)NC1=O (cyclo(A[dF]PVRL[dF]PTD)),-5.69
12,CC(C)C[C@@H]1NC(=O)[C@H](CCCNC(=N)N)NC(=O)[C@H](C(C)C)NC(=O)[C@H](C)NC(=O)[C@@H](Cc2ccccc2)NC(=O)[C@H](C)NC(=O)[C@H](CCCNC(=N)N)NC(=O)[C@H](C(C)C)NC(=O)[C@@H]2CCCN2C(=O)[C@@H](Cc2ccccc2)NC1=O (cyclo(AVRL[dF]PVRA[dF])),-0.657
13,CC(NCCCC[C@@H]1NC(=O)[C@@H](Cc2ccccc2)NC(=O)[C@H](CC(C)C)NC(=O)[C@H](CC(=O)O)NC(=O)[C@H](C(C)C)NC(=O)[C@@H]2CCCN2C(=O)[C@@H](Cc2c[nH]c3ccccc23)NC(=O)[C@H](CC(C)C)NC(=O)[C@H](CCCNC(=N)N)NC(=O)[C@H](C(C)C)NC1=O)=C1C(=O)CC(C)(C)CC1=O,3.86
14,CC(C)C[C@@H]1NC(=O)[C@H](CCCNC(=N)N)NC(=O)[C@H](C(C)C)NC(=O)[C@@H]2CCCN2C(=O)[C@@H](Cc2ccccc2)NC(=O)[C@H](CC(C)C)NC(=O)[C@H](CCCNC(=N)N)NC(=O)[C@H](C)NC(=O)[C@@H]2CCCN2C(=O)[C@@H](Cc2ccccc2)NC1=O (cyclo(ARL[dF]PVRL[dF]P)),22.4
15,CC[C@H](C)[C@@H]1NC(=O)[C@@H]2CCCN2C(=O)[C@@H](Cc2ccccc2)NC(=O)[C@H](CC(C)C)NC(=O)[C@H](CC(=O)O)NC(=O)[C@H]([C@@H](C)O)NC(=O)[C@@H]2CCCN2C(=O)[C@@H](Cc2c[nH]c3ccccc23)NC(=O)[C@H](CC(C)C)NC(=O)[C@H](CCCNC(=N)N)NC1=O (cyclo(DL[dF]PIRL[dW]PT)),33.3
16,CC(C)C[C@@H]1NC(=O)[C@H](COP(=O)(O)O)NC(=O)[C@H]([C@@H](C)O)NC(=O)[C@@H]2CCCN2C(=O)[C@@H](Cc2ccccc2)NC(=O)[C@H](CC(C)C)NC(=O)[C@H](CCCNC(=N)N)NC(=O)[C@H](C(C)C)NC(=O)[C@@H]2CCCN2C(=O)[C@@H](Cc2ccccc2)NC1=O,26
17,CC(C)C[C@@H]1NC(=O)[C@H](CCCNC(=N)N)NC(=O)[C@H](C(C)C)NC(=O)[C@@H]2CCCN2C(=O)[C@@H](Cc2ccccc2)NC(=O)[C@H](CC(C)C)NC(=O)[C@H](CCCNC(=N)N)NC(=O)[C@H](C(C)C)NC(=O)[C@@H]2CCCN2C(=O)[C@@H](C)NC1=O (cyclo(L[dA]PVRL[dF]PVR)),9.49
18,CC(C)C[C@@H]1NC(=O)[C@H](CC(=O)O)NC(=O)[C@H]([C@@H](C)O)NC(=O)[C@@H]2CCCN2C(=O)[C@@H](Cc2ccccc2)NC(=O)[C@H](CC(C)C)NC(=O)[C@H](CC(=O)O)NC(=O)[C@H](C(C)C)NC(=O)[C@@H]2CCCN2C(=O)[C@@H](Cc2ccccc2)NC1=O,-6.65
19,CC(C)C[C@@H]1NC(=O)[C@H](C)NC(=O)[C@H](C(C)C)NC(=O)[C@@H]2CCCN2C(=O)[C@@H](Cc2ccccc2)NC(=O)[C@H](CC(C)C)NC(=O)[C@H](CCCNC(=N)N)NC(=O)[C@H](C(C)C)NC(=O)[C@@H]2CCCN2C(=O)[C@@H](Cc2ccccc2)NC1=O (cyclo(AL[dF]PVRL[dF]PV)),28.8
20,CC(NCCCC[C@@H]1NC(=O)[C@@H]2CCCN2C(=O)[C@@H](Cc2ccccc2)NC(=O)[C@H](CC(C)C)NC(=O)[C@H](CC(=O)O)NC(=O)[C@H]([C@@H](C)O)NC(=O)[C@@H]2CCCN2C(=O)[C@@H](Cc2c[nH]c3ccccc23)NC(=O)[C@H](CC(C)C)NC(=O)[C@H](CCCNC(=N)N)NC1=O)=C1C(=O)CC(C)(C)CC1=O,13.1
